Series [1] is described as follows: Stability of the compound at room temperature. In kind it is physicochemical.
Another series is described as follows: Solubility in solvents. The series is classed as physicochemical.
Another series concerns anaesthetized rat. As to the kind of experiment: Influence on circulatory system (heart rate, blood pressure, max dP/dt, min dP/dt) in anaesthetized rat, continuous intravenous administration. The series is classed as in vivo. The note with it: hydrochloride salt, i.v. continuous 0.1 mg/kg/minute for 20 minutes, difference vs 0 minute value; for change in the heart rate: FIG. 1; for change in blood pressure: FIG. 2; for change in left ventricular contraction function (max dP/dt): FIG. 3; for change in left ventricular relaxation function (min dP/dt): FIG. 4. The procedure: Measurement of heart rate, blood pressure, left ventricular contraction function (max dP/dt), and left ventricular relaxation function (min dP/dt)
Test method: In the present test, by using an anaesthetized rat, the influence of the hydrochloride salt of the first optical isomer component (A) and the second optical isomer component (B), each administered intravenously and continuously, on a circulatory system was determined. The test was performed with n=5 for each group. Each of the first component (A) or the second component (B) was continuously administered for 20 minutes at 0.1 mg/kg/minute, and then the measurement of heart rate, blood pressure, max dP/dt, and min dP/dt was performed. Each parameter was measured at 0 minute, 1 minute, 5 minutes, 10 minutes, 15 minutes, 20 minutes, 25 minutes, 30 minutes, 35 minutes, and 40 minutes after the administration, and the result was expressed in terms of a difference compared to the 0 minute value (previous value (i.e., control value)). The measurement value was expressed in terms of mean value±SD.
For the data of FIG. 1 to FIG. 4, determination of a significant difference was carried out by using t test.

The test system of series [2] is anaesthetized beagle dog. As to the kind of experiment: Influence on atrial effective refractory period in anaesthetized beagle dog. The series is classed as in vivo. The note with it: FIG. 5; for atrial effective refractory period (% change rate vs control value 100%): hydrochloride salt, i.v. 10 minutes at 0.1 mg/kg/minute then 20 minutes at 0.05 mg/kg/minute, pacing interval 250 msec. The procedure: Influence on Atrial Effective Refractory Period
Test method: In the present test, by using an anaesthetized beagle dog, the influence of hydrochloride salt of the first optical isomer component (A) and the second optical isomer component (B), each administered intravenously and continuously, on atrial effective refractory period was determined. The test was performed with n=5 for each group. The test compound was continuously administered for 10 minutes at 0.1 mg/kg/minute and then for 20 minutes at 0.05 mg/kg/minute. Measurement of atrial effective refractory period till 270 minutes after the termination of the administration was carried out. The pacing interval was 250 msec. The measurement value was expressed in terms of mean value±SD.
Test results: The test results are expressed in terms of % change rate when the previous value (i.e., control value) of atrial effective refractory period is set at 100%.
For the data of FIG. 5, determination of a significant difference was carried out by using t test.

For series [3], the system named is anaesthetized beagle dog. The experiment in a line: Influence on ventricular effective refractory period in anaesthetized beagle dog. The series is classed as in vivo. To be noted: for ventricular effective refractory period (% change rate vs control value 100%): anaesthetized beagle dog, i.v. rapid 5 minutes at 1 mg/kg/minute, measured immediately after administration, pacing interval 250 msec, FIG. 6; for extension of ventricular effective refractory period: beagle dog. The procedure:
Influence on Ventricular Effective Refractory Period Test method: In the present test, by using an anaesthetized beagle dog, the influence of the first optical isomer component (A) and the second optical isomer component (B), each administered intravenously and rapidly, on ventricular effective refractory period was determined. The test was performed with n=5 for each group. The test compound was rapidly administered for 5 minutes at 1 mg/kg/minute. Measurement of ventricular effective refractory period was carried out immediately after the termination of the administration. The pacing interval was 250 msec. The measurement value was expressed in terms of mean value±SD. Test results: The test results are expressed in terms of % change rate when the previous value (i.e., control value) of ventricular effective refractory period is set at 100%.

With `COc1ccc2c(c1)CN(C(=O)CCN1CCC(Cc3ccccc3)CC1)CC[S+]2[O-]` (racemic) [[Ia], 4-[3-(4-benzylpiperidin-1-yl)propionyl]-7-methoxy-2,3,4,5-tetrahydro-1,4-benzothiazepine-1-oxide], the “stability to oxygen, humidity, acid, and alkali” value in series [1] was “stable”. Besides, the “solubility in ethanol and dimethyl sulfoxide (DMSO)” value in “Solubility in solvents” (free form, amorphous solid) is on record as “easily dissolved”. Also, the skin irritating property entry in the series “Skin irritating property” is recorded as “has a skin irritating property”.

For `COc1ccc2c(c1)CN(C(=O)CCN1CCC(Cc3ccccc3)CC1)CC[S+]2[O-]` (single isomer, unassigned) [first optical isomer component (A), 4-[3-(4-benzylpiperidin-1-yl)propionyl]-7-methoxy-2,3,4,5-tetrahydro-1,4-benzothiazepine-1-oxide], in the series on anaesthetized rat, the “change in the heart rate” value was “mildly increased”, the “change in blood pressure” value is “mildly increased”, the “change in left ventricular contraction function (max dP/dt)” value is “enhanced” and the “change in left ventricular relaxation function (min dP/dt)” value was “enhanced”. Further, the “atrial effective refractory period (% change rate vs control value 100%)” value with anaesthetized beagle dog [2] was “extended”. Also, the “atrial effective refractory period extension compared with the other enantiomer” value in the series with anaesthetized beagle dog [2] (same regimen) is reported as “longer extension”. The “ventricular effective refractory period (% change rate vs control value 100%)” value in the series with anaesthetized beagle dog [3] (1 mg/kg) is on record as “not extended”. Further, in the series with anaesthetized beagle dog [3] (amount of up to 8 mg/Kg), the “extension of ventricular effective refractory period” value is “does not show any extension”.

For the molecule `COc1ccc2c(c1)CN(C(=O)CCN1CCC(Cc3ccccc3)CC1)CC[S+]2[O-]` (single isomer, unassigned) [second optical isomer component (B), 4-[3-(4-benzylpiperidin-1-yl)propionyl]-7-methoxy-2,3,4,5-tetrahydro-1,4-benzothiazepine-1-oxide], in the series on anaesthetized rat, the “change in the heart rate” value is given as “decreased”, the “change in blood pressure” value is “decreased”, the “change in left ventricular contraction function (max dP/dt)” value was “reduced” and the “change in left ventricular relaxation function (min dP/dt)” value is recorded as “reduced”. Also, the “atrial effective refractory period (% change rate vs control value 100%)” value with anaesthetized beagle dog [2] is “extended”. The “ventricular effective refractory period (% change rate vs control value 100%)” value in the series with anaesthetized beagle dog [3] (1 mg/kg) was “significantly extended”. The “extension of ventricular effective refractory period” value in the series on anaesthetized beagle dog [3] (1 mg/kg, dose dependent) is given as “can extend ventricular effective refractory period”.

As for `COc1ccc2c(c1)CN(C(=O)CCN1CCC(Cc3ccccc3)CC1)CC[S+]2[O-]` (stereo not shown) [oxalate of the compound [Ia], 4-[3-(4-benzylpiperidin-1-yl)propionyl]-7-methoxy-2,3,4,5-tetrahydro-1,4-benzothiazepine-1-oxide], the “solubility in water, ethanol, and dimethyl sulfoxide” value in the series “Solubility in solvents” (oxalate, crystal) is “soluble”.
